Laboratory results taken from patent US20120321609A1, “METHOD OF TREATING PSYCHOLOGICAL DISORDERS” (priority 2011, published 2012).

Legend:
[1] = target: T1, 5-HT2AR (Homo sapiens, UniProt P28223); test: 5-HT-stimulated inositol phosphate formation in HEK 293 cells co-expressing CRFR2 and 5-HT2AR; assay type: cell-based; conditions: CRF 500 nM pretreatment 30 min
T1 construct: expressed in transfected cells; host or cells: HEK 293

[2] = test system: mouse neuronal cultures; test: Inositol phosphate formation in mouse cortical neuronal cultures; assay type: cell-based; conditions: CRF 500 nM pretreatment 30 min; 5-HT 50 μM
[3] = test system: slices prepared from prefrontal cortex; test: Inositol phosphate formation in prefrontal cortex slices; assay type: cell-based, mouse; conditions: CRF 500 nM pretreatment
Description: Slices were incubated for 15 min at 37° C. […] (final volume=270 μl).

[4] = test system: 5-HT2AR; test: Biotinylation of cell surface FLAG-5-HT2AR in HEK 293 cells; assay type: cell-based, human; conditions: CRF 500 nM pretreatment 30 min
Chain of 5-HT2AR (P28223 whole entry, the tested form may be a part): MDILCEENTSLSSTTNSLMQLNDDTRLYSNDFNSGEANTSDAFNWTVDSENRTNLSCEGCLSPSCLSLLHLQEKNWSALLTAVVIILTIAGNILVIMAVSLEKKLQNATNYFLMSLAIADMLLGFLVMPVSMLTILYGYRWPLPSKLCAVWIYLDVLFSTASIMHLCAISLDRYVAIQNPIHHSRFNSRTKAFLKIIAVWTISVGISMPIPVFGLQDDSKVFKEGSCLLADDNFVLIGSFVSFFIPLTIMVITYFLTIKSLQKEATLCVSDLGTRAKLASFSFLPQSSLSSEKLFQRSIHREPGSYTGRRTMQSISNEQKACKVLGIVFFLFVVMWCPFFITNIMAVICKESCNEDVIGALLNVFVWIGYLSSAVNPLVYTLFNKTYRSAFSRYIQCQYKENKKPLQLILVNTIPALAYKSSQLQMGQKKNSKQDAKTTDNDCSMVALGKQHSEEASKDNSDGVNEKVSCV
Description: HEK 293 cells transiently expressing wild-type and truncated FLAG-5-HT2AR and HA-CRFR1 were seeded into 100 mm dishes and pre-incubated for 30 minutes in HBSS. […] Cell surface receptors were labeled on ice with biotin (1 mg/ml) for 1 hour. Following labeling, cells were washed 3 times with 10 mM glycine and then 2 times with HBSS, lysed and equal amounts of total protein were incubated with neutravidin beads for 2 hours with rotation at 4° C. Beads were then washed 3 times with lysis buffer and one time with PBS. Proteins were eluted from beads by addition of 50 ul of SDS loading buffer. Samples were resolved by SDS-PAGE, transferred to nitrocellulose membrane and subsequently immunoblotted as described above with rabbit polyclonal FLAG antibody.

[5] = test system: mice; test: Elevated plus maze test (anxiety-related behaviour); assay type: in vivo, mouse; conditions: DOI 0.15 mg/kg i.p.
Description: Male CD-1 mice were obtained from Charles River Canada (St. Constant, Quebec) at 50-60 days of age, and were acclimatized to the laboratory for approximately 30 days before serving as experimental subjects. Mice were housed four per cage, until the time of surgery, after which they were housed individually. The vivarium was maintained on a 12-h light/dark cycle in a temperature (21° C.) controlled room with food and water freely available. Mice were anesthetized using isoflurane and stereotaxic surgery (David Kopf Instruments Model 940) was performed to install a cannulae into the medial prefrontal cortex. A Guide cannulae (Plastics One In), situated according to the mouse atlas of Franklin and Paxinos at Lateral=0.32 mm, D/V=2.25 mm, A/P=+2.68 mm. A dummy cannula, was inserted flush with guide. Approximately 1 week after behavioral testing mice were perfused with 4% paraformaldehyde. Brains were subsequently sectioned at 14 microns and stained with Cresyl violet for probe placement verification. Only the data from mice with correct probe placements were used in the analysis of the behavioral tests.
Drug diffusion was permitted for 5 min, and then after a further 5 min period mice were injected intraperotineally with DOI (Sigma) at a dose of 0.15 mg/kg or saline. Behavioral testing was conducted 15 min after the DOI treatment. In a second experiment the procedure was identical to that of the preceding study, except that mice were pretreated i.p. with either vehicle or 0.25 mg/kg of M100907 in a volume of 0.3 ml immediately prior to the DOI treatment. As in the preceding study mice were then tested in the elevated plus maze test (n=6-8)/group. Once again, data were obtained from videotapes and the researcher was blind as to the treatments mice had received.
In an initial test, mice were placed in a 45×45 cm open field, with an inner square of 21×24×24 cm., for a 5 min period, during which the time to enter the center area, and the total time spent in the center portion of the arena was recorded. The plus maze test was then conducted 1 min after the open field assessment. Mice were individually placed in one of the enclosed arms of a plus-maze and the behavior of the animals was recorded over a 5 min period by a ceiling-mounted video camera. The amount of time spent in each of the arms, the number of arm entries (an arm entry was defined as all four of the paws being placed in an arm of the plus-maze). The elevated plus-maze had two arms enclosed by 21 cm high walls; whereas the remaining two arms were open (arms were 24.8 cm long×7.7 cm wide). The maze was situated in a dimly lit room, such that the closed arms were darkened, whereas open arms were somewhat illuminated. All behavioural experiments were blinded. All experiments complied with the guidelines set by the Canadian Council on Animal Care and were approved by the Carleton University Animal Care Committee.

[6] = test system: ERK1/2; test: ERK1/2 phosphorylation immunoblot in HEK 293 cells; assay type: cell-based, human; conditions: 500 nM CRF; 0, 2, 5, 15 and 30 min
Description: Following transfection, HEK 293 cells were re-seeded into 6-well plates. […] Cells were lysed with lysis buffer (50 mM Tris, pH 8.0, 150 mM NaCl, and 0.1% Triton X-100) containing protease inhibitors (1 mM AEBSF, 10 μg/ml leupeptin, and 5 μg/ml aprotinin) for 20 min on a rocking platform at 4° C. Samples were collected into 1.5 mL Eppendorf tubes and centrifuged at 15,000 g for 15 min at 4° C. to pellet insoluble material. A […] protein assay was performed and 50 μg of protein was incubated overnight at room temperature in 3×SDS Loading Buffer containing 2-mercaptoethanol. Samples were separated by SDS-PAGE, transferred to a nitrocellulose membrane, and immunoblotted for ERK1/2 (rabbit anti-p44/42 mitogen-activated protein kinase (MAPK), 1:1000), phospho-ERK1/2 (rabbit anti-phospho-p44/42 MAPK, 1:1000), SAP97 (mouse anti-SAP97, 1:1000), and HA-CRFR1 expression (mouse anti-HA, 1:1000), followed by a horseradish peroxidase-conjugated secondary anti-rabbit antibody (1:10,000) or anti-mouse antibody (1:10,000) where appropriate. Proteins were detected using chemiluminescence with the enhanced chemiluminescence kit from GE Healthcare.

[7] = first experiment, CRF 1.5 μg into medial prefrontal cortex
[8] = second experiment (M100907 study), CRF 1.5 μg mPFC, M100907 0.25 mg/kg i.p.

T1 sequence (P28223 whole entry): as the sequence (P28223 whole entry, the tested form may be a part) above

CRF: 41 amino acid peptide that activates the HPA axis; agonist of CRF receptors
effect of pretreatment on 5-HT2AR-stimulated inositol phosphate responses [1]: did not increase | effect of pretreatment on 5-HT-stimulated [3H]-myo-inositol conversion to inositol phosphate [2]: significantly increase | increase in 5-HT-stimulated inositol phosphate formation ([3]; stimulated with 5-HT): 2.3±0.2 fold | increase in DOI-stimulated inositol phosphate formation ([3]; stimulated with DOI 10 μM): 1.5±0.2 fold | increase in cell surface expression of the 5-HT2AR [4]: 3.7±1.8 fold | latency to enter an open arm of the plus maze [5, 7]: had no effect | number of entries into the closed arms of the plus maze [5, 7]: did not vary | number of entries onto the open arms of the plus maze [5, 7]: had no effect | frequency of open arm entries in the plus maze [5, 8]: neither CRF nor DOI alone affected the frequency of open arm entries | latency to enter the open arms of the plus maze [5, 8]: moderate, but statistically significant increase | time spent in the closed arms of the plus maze [5, 8]: unaffected | entries to the closed arms of the plus maze ([5]; second experiment (M100907 study), CRF 1.5 μg mPFC, M100907 0.25 mg/kg i.p., relative to vehicle): increased closed arm entries | ERK1/2 phosphorylation in cells transfected with HA-CRFR1 and scrambled shRNA [6]: more robust and sustained activation | ERK1/2 phosphorylation in non-transfected HEK 293 cells [6]: increase in detectable ERK1/2 phosphorylation at 5 min
